Data reported in patent publication US11292809B2, “Crystals of glycyrrhizic acid derivatives, crystalline compositions, pharmaceutical compositions and uses thereof” (CHIA TAI TIANQING PHARMACEUTICAL GROUP CO., LTD., priority 2018, dated 2022).

Legend:
[1] = Measurement of particle size and specific surface area; type: physicochemical
Text: For the purpose of this application, “X10” represents the particle diameter corresponding to 10% of the particle size distribution, in other words, cumulative 10% of the particles in all the tested particles are smaller than X10; “X50” represents the particle size corresponding to 50% of the particle size distribution, in other words, cumulative 50% of the particles in all the tested particles are smaller than X50; “X90” represents the particle size corresponding to 90% of the particle size distribution, in other words, cumulative 90% of the particles in all the tested particles are smaller than X90.
Sv and Sm denote specific surface areas, i.e., total surface area of a material per unit volume (Sv) and total surface area of a material per unit of mass (Sm) respectively.
Particle size distribution is determined according to the laser method using the instrument below: full-automatic dry-wet laser particle sizer, VIBRI (HELOSBR).

[2] = Color and clarity of solution test; type: physicochemical; settings: 0.5 g dissolved in 10 ml dilute ammonia solution (1→100)
Method: “Color and clarity of solution test” is particularly important, and also a required inspection item for active ingredients used in preparations for injection. Weigh 0.5 g of the crystalline form A obtained in example 5, dissolve it with 10 ml dilute ammonia solution (1→100), and the solution may be clear and colorless. If the solution is colored, compare it with the yellow 2 #standard color solution (Method 1, General Principles 0901, the Chinese Pharmacopoeia), and the former should not be intensely colored than the latter. If the solution is turbid, compare it with the turbidity 0.5 #standard solution (Method 1, General Principles 0902, the Chinese Pharmacopoeia), and the former should not be more intensely turbid than the latter.

[3] = system: liver-injury animal models induced by different hepatotoxic agents; settings: cited from earlier work
[4] = particle size distribution, laser method
[5] = liver-injury animal models induced by different hepatotoxic agents

| X10 [1, 4] [μm] | X50 [1, 4] [μm] | X90 [1, 4] [μm] | Sm ([1]; specific surface area per unit of mass) [m^2/g] | Sv ([1]; specific surface area per unit volume) [m^2/cm^3] | clarity test ([2]; compared with turbidity 0.5# standard solution) | color of solution test ([2]; compared with yellow 2# standard color solution) | SMILES | hepatocyte degeneration and necrosis and inflammatory cell infiltration [3, 5] | hepatocyte regeneration [3, 5] | serum transaminase elevation in animals [3, 5] | effect against liver injury compared with natural glycyrrhizic acids ([3]; versus natural glycyrrhizic acids) |
| --- | --- | --- | --- | --- | --- | --- | --- | --- | --- | --- | --- |
| 6.19 | 42.18 | 91.80 | 0.64 | 0.44 | The solution is clear, and less | The solution is colorless, and less | CC1(C)[C@@H](O[C@H]2O[C@H](C(=O)[O-])[C@@H](O)[C@H](O)[C@H]2O[C@@H]2O[C@H](C(=O)[O-])[C@@H](O)[C@H](O)[C@H]2O)CC[C@]2(C)[C@H]3C(=O)C=C4[C@H]5C[C@@](C)(C(=O)O)CC[C@]5(C)CC[C@@]4(C)[C@]3(C)CC[C@@H]12.[Mg+2] [crystalline form A, magnesium isoglycyrrhizinate] |  |  |  |  |
|  |  |  |  |  |  |  | CC1(C)[C@@H](O[C@H]2O[C@H](C(=O)[O-])[C@@H](O)[C@H](O)[C@H]2O[C@@H]2O[C@H](C(=O)[O-])[C@@H](O)[C@H](O)[C@H]2O)CC[C@]2(C)[C@H]3C(=O)C=C4[C@H]5C[C@@](C)(C(=O)O)CC[C@]5(C)CC[C@@]4(C)[C@]3(C)CC[C@@H]12.[Mg+2] [magnesium isoglycyrrhizinate] | alleviate | promote | significantly inhibit | obviously superior |
